Test results published in patent publication US11760773B2, “Small molecule drug conjugates of gemcitabine monophosphate” (MaveriX Oncology, Inc., priority 2018, dated 2023).
Read-outs that look alike come from different tables or passages of the source.

Key:
UT-SCC-9 = assay: Tumor cell proliferation (alamarBlue) cytotoxicity assay, UT-SCC-9; assay type: cell-based, human; conditions: Homo sapiens; UT-SCC-9, 72 hours treatment
Method: (§1) A tumor cell proliferation assay was used to determine cytotoxicity IC50 values for the phosphate prodrug Compounds 1-9, the parent non-phosphorylated SMDC parent compounds, and the effector (gemcitabine) across eight primary early-passage human head and neck squamous cell carcinoma cell lines including UT-SCC-5, UT-SCC-8, UT-SCC-9, UT-SCC-10, UT-SCC-14, UT-SCC-16A, UT-SCC-16B, and UT-SCC-24A.
(§2) UTSCC cells were seeded at 4000 cells/100 I/well on 96-well black clear-bottom tissue culture plate. Cells were incubated at 37° C. and 5% CO2 overnight to allow them to recover and re-attach. The next day cells were treated with the test compound (0-100 μM) for 72 hours. After treatment, cell proliferation was measured by Fluorescent quantitation of alamarBlue reagent. The alamarBlue assay incorporates a fluorometric/colorimetric growth indicator based on detection of metabolic activity. Specifically, resazurin, the active ingredient of alamarBlue reagent, is blue in color and virtually non-fluorescent. Upon entering cells, resazurin is reduced to resorufin, a compound that is red in color and highly fluorescent.
(§3) Continued cell growth maintains a reduced environment, therefore increasing the overall fluorescence and color of the media surrounding cells. The fluorescence intensity of alamarBlue reagent was directly proportional to cell number. To perform the alamarBlue assay, 10 I of alamarBlue reagent was added to each well and the plate was incubated at 37° C. for an additional 2 hour. Fluorescence intensity was measured at an excitation of 530 nm and an emission of 590 nm using a BioTek Synergy™ 2 microplate reader.
(§4) Cell proliferation assays in triplicate were performed at each concentration. The fluorescent intensity data were analyzed using the computer software, Graphpad Prism. In the absence of the compound, the fluorescent intensity (Ft) in each data set was defined as 100%. In the absence of cells, the fluorescent intensity (Fb) in each data set was defined as 0%. The percent cell in the presence of each compound was calculated according to the following equation: % cell=(F−Fb)/(Ft−Fb), where F=the fluorescent intensity in the presence of the compound, Fb=the fluorescent intensity in the absence of cells, and Ft=the fluorescent intensity in the absence of the compound. The values of % cell versus a series of compound concentrations were then plotted using non-linear regression analysis of Sigmoidal dose-response curve generated with the equation Y=B+(T−B)/1+10^((Log EC50-X)×Hill Slope) where Y=percent cell, B=minimum percent cell, T=maximum percent cell, X=logarithm of compound and Hill Slope=slope factor or Hill coefficient. The IC50 value was determined by the concentration causing a half-maximal percent activity.

[1] = Gemcitabine normal tissue and plasma PK in CD-1 mice (study e); assay type: in vivo; conditions: male CD-1 mice, iv gemcitabine, FIG. 6
Method: Objectives: to determine the normal tissue pharmacokinetics, distribution, and stability of gemcitabine in select excretory organs and plasma following a single intravenous infusion administration of gemcitabine at 10.5 mg/kg in male CD-1 mice.
PK measurements: determine PK parameters C0, CL, Vdss, Cmax, tmax, t1/2, AUC(0-t), AUC(0-inf), MRT(0-t), MRT(0-inf) for gemcitabine

UT-SCC-5 = assay: Tumor cell proliferation (alamarBlue) cytotoxicity assay, UT-SCC-5; assay type: cell-based, human; conditions: Homo sapiens; UT-SCC-5, 72 hours treatment
Method: as §1, §2, §3, §4

UT-SCC-24A = assay: Tumor cell proliferation (alamarBlue) cytotoxicity assay, UT-SCC-24A; assay type: cell-based, human; conditions: Homo sapiens, 72 hours treatment
Method: as §1, §2, §3, §4

UT-SCC-14 = assay: Tumor cell proliferation (alamarBlue) cytotoxicity assay, UT-SCC-14; assay type: cell-based, human; conditions: Homo sapiens; UT-SCC-14, 72 hours treatment
Method: as §1, §2, §3, §4

[2] = Plasma PK of Int 3-3 in CD-1 mice (study c); assay type: in vivo; conditions: after iv Int 3-3 8.8 mg/kg
Method: Objectives: to determine the plasma pharmacokinetics of Int 3-3 following a single intravenous infusion of Int 3-3 at 8.83 mg/kg in CD-1 mice
PK measurements: compare PK parameters C0, CL, Vdss, Cmax, tmax, t1/2, AUC(0-t), AUC(0-inf), MRT(0-t), MRT(0-inf) for Int 3-3.

[3] = in the clinic; cited from earlier work
[4] = Metabolic stability in liver hepatocytes, across species; assay type: in vitro ADME; conditions: mouse, dog, monkey, rat highest, human lowest, read-out: intrinsic clearance values Cint
[5] = Liver microsomal stability, dog; assay type: in vitro ADME; conditions: dog liver microsomes
[6] = Liver microsomal stability, mouse; assay type: in vitro ADME; conditions: mouse liver microsomes
Human liver S9 stability = assay type: in vitro ADME; conditions: for microsomal CLint: human
Human plasma stability = assay type: in vitro ADME
Method: Method: Assay was carried out in 96-well microtiter plates. Compounds were incubated in replicates (n=2) for 0, 5, 15, 30, and 45 minutes at 37° C. Reaction mixtures (20 μL) contained a final concentration of 3 μM test compound in human plasma. Eucatropine included as positive control to verify assay performance. Linear regression of semi-log plot of % remaining of compounds versus time used to determine the half-life t½ values.

[7] = Int 1-4 normal tissue and plasma PK in CD-1 mice (study d); assay type: in vivo; conditions: male CD-1 mice, iv Int 1-4, FIG. 5
Method: Objectives: to compare the normal tissue pharmacokinetics, distribution, and stability of Int 1-4 in excretory organs following a single intravenous infusion administration of Int 1-4 at 20 mg/kg in male CD-1 mice.
PK measurements: compare PK parameters C0, CL, Vdss, Cmax, tmax, t1/2, AUC(0-t), AUC(0-inf), MRT(0-t), MRT(0-inf) for Int 1-4

Structure (SMILES): Nc1ccn([C@@H]2O[C@H](CO)[C@@H](O)C2(F)F)c(=O)n1 [Gemcitabine, gemcitabine]
- IC50 (UT-SCC-9): 35 nM
- fate in plasma and normal tissue [1]: deaminated to dFdU
- IC50 (UT-SCC-5): 9 nM
- IC50 (UT-SCC-24A): 14 nM
- IC50 (UT-SCC-14): 6 nM
- AUC0-inf/AUC0-last [2]: 113%
- AUC(0-t) ([2]; mouse): 63.5 ng·h/mL
- half-life ([2]; mouse): 1.38 h
- AUC(0-inf) ([2]; mouse, read-out: AUC0-inf): 71.9 ng·h/mL
- Cmax ([2]; mouse, read-out: Cmax): 73.4 ng/mL
- MRT inf ([2]; mouse, read-out: MRT0-inf): 1.69 h
- MRT last ([2]; mouse, read-out: MRT0-last): 1.13 h
- Tmax ([2]; mouse, read-out: Tmax): 0.0611 h
- injected dose recovered in the urine [3]: 90%
- share of the dose recovered in urine found as this species [3]: 1%

Structure (SMILES): COc1cc(OC)c2oc(COC(=O)Nc3ccn([C@@H]4O[C@H](CO)[C@@H](O)C4(F)F)c(=O)n3)cc2c1 [Int 1-4, (5,7-di(methoxy)benzofuran-2-yl)methyl (1-((2R,4R,5R)-3,3-difluoro-4-hydroxy-5-(hydroxymethyl)tetrahydrofuran-2-yl)-2-oxo-1,2-dihydropyrimidin-4-yl)carbamate]
- IC50 (UT-SCC-9): 39 nM
- microsomal CLint [4]: 3 to 8 µL/min/mg
- IC50 (UT-SCC-5): 16 nM
- half-life [5]: 2.4 h
- microsomal CLint [5]: 9.63 µL/min/mg
- Compound Remaining (% of 0 min) 0 min ([5]; 0 min): 100 % of 0 min
- Compound Remaining (% of 0 min) 5 min ([5]; 5 min): 97.1 % of 0 min
- Compound Remaining (% of 0 min) 15 min ([5]; 15 min): 90.8 % of 0 min
- Compound Remaining (% of 0 min) 30 min ([5]; 30 min): 85.7 % of 0 min
- Compound Remaining (% of 0 min) 45 min ([5]; 45 min): 80.4 % of 0 min
- Compound Remaining (% of 0 min) control ([5]; control): 94.5 % of 0 min
- IC50 (UT-SCC-24A): 20 nM
- half-life [6]: 1.35 h
- microsomal CLint [6]: 17.1 µL/min/mg
- Compound Remaining (% of 0 min) 0 min ([6]; 0 min): 100 % of 0 min
- Compound Remaining (% of 0 min) 5 min ([6]; 5 min): 102 % of 0 min
- Compound Remaining (% of 0 min) 15 min ([6]; 15 min): 78.4 % of 0 min
- Compound Remaining (% of 0 min) 30 min ([6]; 30 min): 73.6 % of 0 min
- Compound Remaining (% of 0 min) 45 min ([6]; 45 min): 70.7 % of 0 min
- Compound Remaining (% of 0 min) control ([6]; control): 93.2 % of 0 min
- Slope Mean ± SE (Human liver S9 stability; human liver S9): −0.005545 ± 0.000717
- half-life (Human liver S9 stability; human liver S9, read-out: t1/2 Mean ± SE): 2.08 ± 0.27 h
- microsomal CLint (Human liver S9 stability; liver S9, human liver S9, summary, read-out: S9 intrinsic clearance Clint): < 2.5 µL/min/mg
- microsomal CLint (Human liver S9 stability; liver S9, human liver S9, text value, read-out: intrinsic clearance value): 2.22 µL/min/mg
- microsomal CLint (Human liver S9 stability; liver S9, human liver S9, read-out: CLint Mean ± SE): 2.22 ± 0.287 µL/min/mg
- IC50 (UT-SCC-14): 13 nM
- Slope Mean ± SE (Human plasma stability; 3 μM, 37° C., semi-log plot of % remaining versus time, in min-1 (unit assumed)): 0.001033 ± 0.001249
- stability in human plasma (Human plasma stability; repeat measurements): stable
- stability in plasma and major excretory organs (liver, kidney) [7]: stable

Structure (SMILES): O=c1ccn(C2OC(CO)C(O)C2(F)F)c(=O)[nH]1 (centres unmarked) [dFdU]
- AUC0-inf/AUC0-last [2]: 146%
- AUC0-last [2]: 942 ng·h/mL
- AUC(0-inf) [2]: 1403 ng·h/mL
- Cmax [2]: 168 ng/mL
- MRT0-inf [2]: 7.48 h
- MRT0-last [2]: 3.67 h
- T1/2 [2]: 5.22 h
- Tmax [2]: 4.00 h
- share of the dose recovered in urine found as this species [3]: 99%
